These results are taken from patent US20120058133A1, “INHIBITION OF TRNA SYNTHETASES AND THERAPEUTIC APPLICATIONS THEREOF” (President and Fellows of Harvard College, priority 2009, published 2012).

One assay relates to TGFβ signaling. Kind of assay: Lymphocyte responses to TGFβ (Smad phosphorylation and others). Conditions: low dose HF; 10 μM SB-431542. Type of assay: cell-based, mouse. As for the experimental part:
FIG. 8. […] FIG. 8A is a set of FACS analyses of CD4^+ CD25^− T cells activated in Th1 or Th2 polarizing conditions, either in the presence or absence of TGFβ. DMSO, 10 nM HF, 10 nM MAZ1310, or 10 μM SB-431542 added as indicated at the time of activation. Intracellular cytokine staining was performed on expanded T cells on day 5.
FIG. 8B is a set of FACS analyses of CD8^+ T cells activated in the presence or absence of TGFβ and cultured with DMSO, 10 nM HF, 10 nM MAZ1310, or 10 μM SB-431542. Expanded cells were restimulated on day 5 and intracellular staining was performed.
FIG. 8C is a set of FACS analyses of CFSE-labeled B cells activated by LPS stimulation in the presence or absence of TGFβ plus DMSO, 10 nM HF, 10 nM MAZ1310, or 10 μM SB-431542. Intracellular IL-6 production in B cells restimulated with PMA plus ionomycin, or cell-surface IgA expression was determined 4 days after activation.
FIG. 8D depicts western blot analyses of purified CD4^+ CD25^− T cells treated with DMSO, 40 nM MAZ1310, titrating concentrations of HF (2.5-40 nM) or 10 μM SB-431542 for 30 minutes in complete medium supplemented with 0.1% fetal calf serum. T cells were then activated in the presence or absence of 3 ng/ml TGFβ. Whole cell extracts were prepared after 1 hour of stimulation and western blot analyses were performed using the indicated antibodies. […]

The subject of assay [1] is translation in rabbit reticulocyte lysate. Kind of assay: In vitro translation in rabbit reticulocyte lysate (RRL). The assay is classed as biochemical. Conditions: for translation of luciferase RNA in RRL: standard amino acid mix. The procedure: FIG. 23. HF and FF inhibit prolyl tRNA synthetase activity in vitro. […] Rabbit reticulocyte lysate (RRL) was incubated with luciferase mRNA and translation quantitated in a luminescence assay. A high concentration of mixed or individual amino acids (1 mM of each) was added to rescue translational inhibition. AA Mix 1: Asn, Arg, Val, Glu, Gly; AA Mix2: Lys, Ile, Tyr, Asp, Trp; Mix 3: His, Met, Leu, Ala, Thr; Mix 4: Ser, Phe, Pro, Gln. […] Note log scale of y axis.
Inhibitors (FIG. 22) and proline were assayed as described in FIG. 23A. Note log scale at Y axis. Error bars reflect standard deviation of triplicate determinations.
Short myc-tagged polypeptides of identical sequence (see Example 9, “Materials and Methods”) with the exception that NoPro lacks proline, while ProPro contains a proline dipeptide, were translated in RRL in the presence of indicated inhibitors. Translation was examined by anti-myc Western blot.
Note log scale of Y axis.
Translation in vitro was performed using rabbit reticulocyte lysates and luciferase mRNA as template. Translation was measured as arbitrary units of luciferase activity using a luminometer based luminescence assay. Log scale presentation of background-subtracted data is shown.

Assay [2] has as its system GCN2 phosphorylation / AAR pathway. Kind of assay: AAR pathway activation in MEFs (GCN2, eIF2a phosphorylation, CHOP). The assay is classed as cell-based, mouse. As for the experimental part: FIG. 24. Activation of the AAR in cells by HF/FF occurs through inhibition of proline utilization. FIG. 24A is a gel showing HF-induction of the AAR pathway is reversed by proline. MEFs were treated with the indicated concentration of HF or FF in the presence or absence of 2 mM Proline for 2 hours (left) or treated with 1 μM borrelidin in the presence or absence of 2 mM Threonine for 2 hours (right). Cells were lysed and assessed by anti-pGCN2 or anti-GCN2 Western blot. Data are representative of three separate experiments.
FIG. 24B is a gel showing HF induction of eIF2a phosphorylation and CHOP expression is GCN2 dependent. Wild Type or GCN2−/− MEFs were treated with 50 nM HF in the presence or absence of 2 mM proline. Cells were lysed at 2 hours post-HF addition (peIF2a) or 6 hours post-HF addition (CHOP) and analyzed for phosphoprotein or total protein levels by Western blot.

A short description of assay [3]: Cell-based assays (not specified).
In assay [4] the test system is murine CD4+ CD25− T cells. Kind of assay: Th17 differentiation of activated CD4+ CD25− T cells (TGFβ plus IL-6; IL-17+ IFNγ− cells). Conditions: for IL-17 production / Th17 differentiation: 0.2 mM L-tryptophanol. Type of assay: cell-based, mouse. The procedure:
Purified CD4^+ CD25^− T cells were activated in vitro as previously described (Djuretic et al., Nat. Immunol. 8:145, 2007) using 0.3 μg/ml hamster anti-mouse CD3 (clone 145-2C11) (ATCC—Manassas, Va.) and 0.5 μg/ml hamster anti-mouse CD28 (BD Pharmingen—San Jose, Calif.). Activated cell cultures were differentiated using the following combinations of cytokines and antibodies: iTreg-recombinant human TGFβ1 (3 ng/ml—R&D systems, Minneapolis, Minn.), Th17-TGFβ1 (3 ng/ml) plus recombinant mouse IL-6 (30 ng/ml—R&D systems). Th1 and Th2 differentiation was performed as previously described (Djuretic et al., Nat. Immunol. 8:145, 2007). Human IL-2 supernatant (National Cancer Institute) was used in culture at 0.01 U/ml and was added at 48 hours-post activation when T cells were split into tissue culture wells lacking CD3 and CD28 antibodies, with the exception of Th17 cultures that were maintained in the absence of exogenous IL-2. CD8^+ T cells were activated with 1 μg/ml anti-CD3 and 1 μg/ml anti-CD28 and were expanded in 0.1 U/ml IL-2 until day 6 post activation. CD43-depleted B cells were activated in vitro by culturing with 25 μg/ml LPS (Sigma—St. Louis, Mo.) for 3-4 days in the presence or absence of TGFβ. All reagents (see below) were added at the time of T cell activation and again at 48 hours post activation unless indicated otherwise. For some experiments, purified CD4^+ CD25^− T cells, CD8^+ T cells or B cells were labeled with 1 μM CFSE (Invitrogen) prior to activation in accordance with manufacturer's instructions. Human T cell activation was performed by plating purified monocytes in a 96-well flat bottom plate at a concentration of 2×10^4 cells per well in complete medium overnight. 10^5 purified human memory T cells were added to monocyte cultures in the presence of soluble anti-CD3/anti-CD28 beads (Dynabeads, Invitrogen). T cells were expanded in the presence HF or MAZ1310 for up to 6 days.
MAZ1310 (Kamberov, Ph.D. Dissertation, Harvard University, 2008) was generated by chemical derivatization of halofuginone and was used at equal concentrations as a negative control. HF and MAZ1310 were prepared as 100 mM stock solutions in DMSO and diluted to the indicated concentrations. SB-431542 (Inman et al., Mol. Pharmacol. 62:65, 2002) (Tocris bioscience—Ellisville, Mo.) was prepared as a 10 mM stock solution in DMSO and was used in culture at 10 μM. L-tryptophanol was prepared as a 20 mM stock solution in 0.1 M NaOH, pH 7.4 and was used at 0.2 mM. For amino acid starvation experiments, T cells were activated and differentiated as above in D-MEM medium without L-cysteine and L-methionine (Invitrogen—Carlsbad, Calif.), or D-MEM medium without L-leucine. Stocks containing 20 mM L-cysteine (Sigma—St. Louis, Mo.) plus 10 mM L-methionine (Sigma), or 400 mM L-leucine (Sigma) were prepared in ddH2O, pH 1.0 and were added to medium at the indicated concentrations.
For detection of intracellular cytokines in murine cells, cultured T or B cells were stimulated with 10 nM PMA (Sigma) and […] (Sigma) for 4-5 hours in the presence of 10 mM brefeldin A (Sigma). Stimulated cells were harvested, washed with PBS and fixed with PBS plus 4% paraformaldehyde at room temperature for 20 minutes. Cells were then washed with PBS, permeabilized with PBS supplemented with 1% BSA and 0.5% saponin (Sigma) at room temperature for 10 minutes before cytokine-specific antibodies were added and incubated with cells for an additional 20 minutes at room temperature.

On to `NC(=O)c1ccc(-c2nc(-c3ccc4c(c3)OCO4)c(-c3ccccn3)[nH]2)cc1` [SB-431542], for which the “TGFβ-induced Smad phosphorylation and other lymphocyte responses to TGFβ” value in the assay with TGFβ signaling is recorded as “abrogated all responses to TGFβ”.
For the compound `O=C(C[C@H]1NCCC[C@@H]1O)Cn1cnc2ccccc2c1=O` [FF, febrifugine], in assay [1], the “translation of NoPro polypeptide” value is given as “had no effect on the translation of NoPro”, the “translation of ProPro polypeptide” value is “prevented translation of ProPro” and the “translation of luciferase RNA in RRL” value is “inhibited the translation of luciferase RNA”. Also, the “rescue of translation inhibition by added purified EPRS” value in assay [1] (80 ng or 0.5 μg EPRS) is recorded as “rescued HF/FF-inhibition of protein translation”. In addition, the “rescue of translation inhibition by added amino acids” value in assay [1] (excess amino acids (1-2 mM)) is “only proline could restore translation”. Further, the “reversal of GCN2 phosphorylation by cognate amino acid” value in assay [2] (2 mM proline or 2 mM threonine) is given as “abrogated by the addition of 2 mM proline”. In assay [2] (2 hours, borrelidin 1 μM), the “GCN2 phosphorylation in fibroblasts” value is “Stimulation of GCN2 phosphorylation”.
In the case of `CC(=O)N1CCC[C@H](O)[C@H]1CC(=O)Cn1cnc2cc(Br)c(Cl)cc2c1=O` [MAZ1442], the “translation of luciferase RNA in RRL” value in assay [1] is “no activity”. Also, the “activity in cell-based assays” value in assay [3] was “lack activity”.
Regarding `N[C@H](CO)Cc1c[nH]c2ccccc12` [L-tryptophanol], the “IL-17 production / Th17 differentiation” value is “impaired IL-17 production” in assay [4] and “inhibited Th17 differentiation” in assay [4] (listed as tryptophanol). For the same compound, in assay [4] (1 mM Tryptophanol), the Th17 differentiation entry is reported as “inhibits Th17 differentiation”.
`CC(C)(C)OC(=O)N1CCC[C@H](O)[C@H]1CC(=O)Cn1cnc2cc(Br)c(Cl)cc2c1=O` [MAZ1310]: the “translation of luciferase RNA in RRL” value in assay [1] is given as “no activity”. Besides, the “activity in cell-based assays” value in assay [3] is reported as “lack activity”.
